Paper PMC5298005 (Clinical Pharmacology in Drug Development, 2016)
Where two headings read alike, the source gives them in different places. Marks after values point to notes of the source that are not given here. One block for each compound: values may come before it.

Tests used:
[1] = Phase 1 drug-interaction study, prednisone with isavuconazole: pharmacokinetics
[2] = Phase 1 drug-interaction study, tacrolimus with isavuconazole: pharmacokinetics; assay type: in vivo, human (healthy subjects)
[3] = Treatment-emergent adverse events, cyclosporine study; assay type: in vivo, human (healthy subjects); settings: TEAE during isavuconazole‐only administration
[4] = Phase 1 drug-interaction study, sirolimus with isavuconazole: pharmacokinetics; assay type: in vivo, human (healthy subjects)
[5] = assay type: in vivo, human (healthy subjects)
CYP3A4 = settings: human liver microsomes expressing CYP3A4 in vitro; ref data on file; cited from earlier work
[6] = cited from earlier work
[7] = isavuconazole + cyclosporine vs isavuconazole alone
[8] = both, human, plasma, oral, 200 mg
[9] = isavuconazole + tacrolimus vs isavuconazole alone
[10] = isavuconazole + sirolimus vs isavuconazole alone
[11] = isavuconazole + MMF vs isavuconazole alone
[12] = MPAG after MMF 1 g single oral dose
[13] = MMF + isavuconazole vs MMF alone
[14] = MPA after MMF 1 g single oral dose
[15] = both, human, in vivo, po, 20 mg
[16] = prednisolone after prednisone 20 mg single oral dose
[17] = prednisone + isavuconazole vs prednisone alone
[18] = both, human, whole blood, po, 2 mg
[19] = sirolimus 2 mg single oral dose
[20] = both, human, whole blood, po, 5 mg
[21] = tacrolimus 5 mg single oral dose
[22] = tacrolimus + isavuconazole vs tacrolimus alone

SMILES: C[C@@H](c1nc(-c2ccc(C#N)cc2)cs1)[C@](O)(Cn1cncn1)c1cc(F)ccc1F [Isavuconazole, isavuconazole]
AUC (both, human, in vivo, 200 mg): 108000 ng·h/mL | Cmax (both, human, in vivo, 200 mg): 5700 ng/mL | AUCτ, Geometric Least‐Squares Mean, % (90%CI) [7]: 103 (100, 106) % | Cmax, Geometric Least‐Squares Mean, % (90%CI) [7]: 130 (121, 139) % | AUC ([1]; both, human, in vivo, 200 mg): 88200 ng·h/mL | Cmax ([1]; both, human, in vivo, 200 mg): 5600 ng/mL | Tmax ([1]; both, human, in vivo, 200 mg): 2 h | AUC [2, 8]: 89800 ng·h/mL | Cmax [2, 8]: 4900 ng/mL | mean AUCτ of isavuconazole higher in the presence of tacrolimus ([2]; in vivo): 12% | mean Cmax of isavuconazole higher in the presence of tacrolimus ([2]; in vivo): 26% | AUCτ, Geometric Least‐Squares Mean, % (90%CI) [2, 9]: 112 (110, 115) % | Cmax, Geometric Least‐Squares Mean, % (90%CI) [2, 9]: 126 (118, 134) % | blood creatinine ([3]; 1 subject, day 15, 0.9 mg/dL on day –1): 1.4 mg/dL | blood creatinine ([3]; second subject, by day 14, baseline 1.3 mg/dL): 1.4 mg/dL | AUC [4, 8]: 92000 ng·h/mL | Tmax [4, 8]: 2 h | mean AUCτ of isavuconazole higher in the presence of sirolimus ([4]; in vivo): 11% | mean Cmax of isavuconazole higher in the presence of sirolimus ([4]; in vivo): 4% | AUCτ, Geometric Least‐Squares Mean, % (90%CI) [4, 10]: 111 (109, 114) % | Cmax, Geometric Least‐Squares Mean, % (90%CI) [4, 10]: 104 (100, 108) % | AUCτ ([5]; MMF study, isavuconazole 200 mg QD alone, plasma, n = 22, arithmetic mean (SD)): 101.4 (37.6) μg·h/mL | Cmax [5, 8]: 6500 ng/mL | change of mean AUCτ of isavuconazole by coadministration with MMF ([5]; in vivo): unchanged | mean Cmax of isavuconazole increased by coadministration with MMF ([5]; in vivo): 4% | AUCτ, Geometric Least‐Squares Mean, % (90%CI) [5, 11]: 101 (98, 103) % | Cmax, Geometric Least‐Squares Mean, % (90%CI) [5, 11]: 104 (100, 107) % | isavuconazole metabolized (CYP3A4): 66.2%

SMILES: CCC(C)n1ncn(-c2ccc(N3CCN(c4ccc(OCC5COC(Cn6cncn6)(c6ccc(Cl)cc6Cl)O5)cc4)CC3)cc2)c1=O (stereo not drawn) [Itraconazole, itraconazole]
Fold increase in trough concentrations of cyclosporine ([6]; cyclosporine coadministered with itraconazole): ↑ 2.7 ^b ^,13 fold | Fold increase in trough concentrations of tacrolimus ([6]; tacrolimus coadministered with itraconazole): ↑ 5.6 ^b ^,13 fold

AUC0–∞ lower in the presence vs absence of isavuconazole [5, 12]: 24% | AUClast lower in the presence vs absence of isavuconazole [5, 12]: 27% | Cmax lower in the presence vs absence of isavuconazole [5, 12]: 32%
SMILES: COc1c(C)c2c(c(O[C@@H]3O[C@H](C(=O)O)[C@@H](O)[C@H](O)[C@H]3O)c1C/C=C(\C)CCC(=O)O)C(=O)OC2 [MPAG, mycophenolic acid phenyl glucuronide]

CL/F ([5]; MMF 1 g single oral dose alone, plasma, n = 24, arithmetic mean (SD)): 11.5 (3.4) L/h | AUC0–∞, Geometric Least‐Squares Mean Ratio, % (90%CI) [5, 13]: 135 (127, 145) % | AUClast, Geometric Least‐Squares Mean Ratio, % (90%CI) [5, 13]: 132 (124, 141) % | Cmax, Geometric Least‐Squares Mean Ratio, % (90%CI) [5, 13]: 89 (76, 103) % | Cmax lower in the presence vs absence of isavuconazole [5, 14]: 11% | Mean AUC0–∞ higher in the presence vs absence of isavuconazole [5, 14]: 35% | Mean AUClast higher in the presence vs absence of isavuconazole [5, 14]: 32% | Tmax ([5]; both, human, plasma, po, 1 g): 0.5 h | half-life ([5]; both, human, plasma, po, 1 g): 12.6 h
SMILES: COc1c(C)c2c(c(O)c1C/C=C(\C)CCC(=O)O)C(=O)OC2 [Mycophenolic Acid, mycophenolic acid]

SMILES: CC[C@@H]([C@H](C)O)n1ncn(-c2ccc(N3CCN(c4ccc(OC[C@@H]5CO[C@@](Cn6cncn6)(c6ccc(F)cc6F)C5)cc4)CC3)cc2)c1=O [Posaconazole, posaconazole]
Fold increase in area under the plasma concentration‐time curve of sirolimus ([6]; sirolimus coadministered with posaconazole): ↑ 7.9 ^a ^,14 fold | Fold increase in area under the plasma concentration‐time curve of tacrolimus ([6]; tacrolimus coadministered with posaconazole): ↑ 3.6 ^a ^,14 fold

AUC(0-inf) [1, 15]: 1650 ng·h/mL | AUC(0-t) [1, 15]: 1640 ng·h/mL | Cmax [1, 15]: 295 ng/mL | Tmax [1, 15]: 1.5 h | half-life [1, 15]: 2.9 h | Cmax lower in the presence vs absence of isavuconazole [1, 16]: 4% | Mean AUC0–∞ higher in the presence vs absence of isavuconazole [1, 16]: 8% | Mean AUClast higher in the presence vs absence of isavuconazole [1, 16]: 8% | AUC0–∞, Geometric Least‐Squares Mean Ratio, % (90%CI) [1, 17]: 108 (102, 114) % | AUClast, Geometric Least‐Squares Mean Ratio, % (90%CI) [1, 17]: 108 (102, 114) % | Cmax, Geometric Least‐Squares Mean Ratio, % (90%CI) [1, 17]: 96 (90, 102) %
SMILES: C[C@]12C=CC(=O)C=C1CC[C@@H]1[C@@H]2[C@@H](O)C[C@@]2(C)[C@H]1CC[C@]2(O)C(=O)CO [Prednisolone, prednisolone]

AUC(0-inf) [4, 18]: 196 ng·h/mL | AUC(0-t) [4, 18]: 152 ng·h/mL | Cmax [4, 18]: 5.1 ng/mL | half-life [4, 18]: 74.8 h | Mean AUC0–∞ higher in the presence vs absence of isavuconazole [4, 19]: 84% | Mean AUClast higher in the presence vs absence of isavuconazole [4, 19]: 108% | Mean Cmax higher in the presence vs absence of isavuconazole [4, 19]: 65%
SMILES: CO[C@H]1C[C@@H]2CC[C@@H](C)[C@@](O)(O2)C(=O)C(=O)N2CCCC[C@H]2C(=O)O[C@H]([C@H](C)C[C@@H]2CC[C@@H](O)[C@H](OC)C2)CC(=O)[C@H](C)/C=C(\C)[C@@H](O)[C@@H](OC)C(=O)[C@H](C)C[C@H](C)/C=C/C=C/C=C/1C [Sirolimus, sirolimus]

AUC(0-inf) [2, 20]: 313 ng·h/mL | AUC(0-t) [2, 20]: 304 ng·h/mL | Cmax [2, 20]: 26.7 ng/mL | Mean AUC0–∞ higher in the presence vs absence of isavuconazole [2, 21]: 125% | Mean AUClast higher in the presence vs absence of isavuconazole [2, 21]: 127% | Mean Cmax higher in the presence vs absence of isavuconazole [2, 21]: 42% | AUC0–∞, Geometric Least‐Squares Mean Ratio, % (90%CI) [2, 22]: 225 (191, 266) % | AUClast, Geometric Least‐Squares Mean Ratio, % (90%CI) [2, 22]: 227 (192, 268) % | Cmax, Geometric Least‐Squares Mean Ratio, % (90%CI) [2, 22]: 142 (122, 164) %
SMILES: C=CC[C@@H]1/C=C(\C)C[C@H](C)C[C@H](OC)[C@H]2O[C@@](O)(C(=O)C(=O)N3CCCC[C@H]3C(=O)O[C@H](/C(C)=C/[C@@H]3CC[C@@H](O)[C@H](OC)C3)[C@H](C)[C@@H](O)CC1=O)[C@H](C)C[C@@H]2OC [Tacrolimus, tacrolimus]

SMILES: C[C@@H](c1ncncc1F)[C@](O)(Cn1cncn1)c1ccc(F)cc1F [Voriconazole, voriconazole]
Fold increase in area under the plasma concentration‐time curve of cyclosporine ([6]; cyclosporine coadministered with voriconazole): ↑ 1.7 ^a ^,7 fold | Fold increase in area under the plasma concentration‐time curve of sirolimus ([6]; sirolimus coadministered with voriconazole): ↑ 11 ^a ^,7 fold | Fold increase in area under the plasma concentration‐time curve of tacrolimus ([6]; tacrolimus coadministered with voriconazole): ↑ 3 ^a ^,7 fold | effect of coadministration on MPA AUC ([6]; voriconazole coadministration, ref VFEND package insert): no significant effect
